Experiment in series [1]: not given
The source holds these as a separate data set.

The conditions of series [2]: approved twice-daily dosing in COPD; cited from earlier work.
Series [3] is described as follows: Example 6: randomized, cross-over, single dose study of nebulized salmeterol in healthy volunteers.
The conditions of series [4]: nebulized, clinical trial in COPD; cited from earlier work.
Experiment in series [5]: not given
This is another data set of the same source.

Experiment in series [6]: not given
The source holds these as a separate data set.

The conditions of series [7]: high efficiency nebulizer.
Setting [8] is: conventional nebulizer, same or higher dose.
The mark [9] stands for this setting: lower dose, high efficiency nebulizer.

SMILES strings stand for the structures. Structures can show the parent of a compound that is named as a salt. Where two headings read alike, the source gives them in different places.

The values that follow come from US20170202787A1, “TREATMENT OF CHRONIC OBSTRUCTIVE PULMONARY DISEASE WITH NEBULIZED BETA 2-AGONIST OR COMBINED NEBULIZED BETA 2-AGONIST AND ANTICHOLINERGIC ADMINISTRATION” (Sunovion Respiratory Development, Inc., priority 2009, published 2017).

Consider `COc1ccc(CC(C)NCC(O)c2ccc(O)c(NC=O)c2)cc1` (racemic) [formoterol], for which the “duration of clinically meaningful bronchodilation” value under setting [8] is “less than 24 hours”, the “duration of clinically meaningful bronchodilation” value (high efficiency nebulizer) is reported as “at least 24 hours”, the “duration of clinically meaningful bronchodilation” value in series [1] (setting [8]) was “less than 24 hours” and the “duration of clinically meaningful bronchodilation” value in series [1] (high efficiency nebulizer) was “at least 24 hours”.
Turning to `COc1ccc(C[C@@H](C)NC[C@H](O)c2ccc(O)c(NC=O)c2)cc1.COc1ccc(C[C@@H](C)NC[C@H](O)c2ccc(O)c(NC=O)c2)cc1.O=C(O)/C=C/C(=O)O` [formoterol fumarate], the “duration of clinically meaningful bronchodilation with acceptable side effects” value (“duration … with acceptable side effects” for short) in series [2] is 12 h.
As to `OCc1cc(C(O)CNCCCCCCOCCCCc2ccccc2)ccc1O` (centres unmarked) [salmeterol], the “duration of clinically meaningful bronchodilation” value in series [3] (high efficiency nebulizer) is reported as “at least 24 hours”. For the same molecule, the “period of time of therapeutic effect” value in series [3] (high efficiency nebulizer, tested doses) fell in the range of 12 to 24 h. Also, in series [3] (setting [9]), the “adverse event profile / side effects (serum potassium, glucose) compared to a selected dose with a conventional nebulizer” value is “improved adverse event profile and/or improved side effects” and the “therapeutic effects compared to a selected dose with a conventional nebulizer” value is listed as “improved or similar therapeutic effects”. Moreover, in series [3] (same dose with conventional nebulizer, metered dose inhaler, or dry powder inhaler), the “duration of clinically meaningful bronchodilation” value is recorded as “less than 24 hours”.
Regarding `OCc1cc(C(O)CNCCCCCCOCCCCc2ccccc2)ccc1O` (centres unmarked) [salmeterol xinafoate], the “duration … with acceptable side effects” value in series [2] was 12 h.
In the case of `COc1ccc(C[C@@H](C)NC[C@H](O)c2ccc(O)c(NC=O)c2)cc1` [arformoterol tartrate], in series [2], the “duration … with acceptable side effects” value is 12 h. Moreover, in series [4], the “duration of clinically meaningful bronchodilation” value is 24 h and the “side effects at the dosing giving 24 hours of bronchodilation” value is “unacceptable side effects”.
With `COc1ccc(C[C@@H](C)NC[C@H](O)c2ccc(O)c(NC=O)c2)cc1` [arformoterol, R,R-formoterol], the “duration of clinically meaningful bronchodilation” value in series [5] (setting [8]) is “less than 24 hours”; in series [5] (high efficiency nebulizer), “at least 24 hours”; in series [6] (setting [8]) it was “less than 24 hours”; in series [6] (high efficiency nebulizer), “at least 24 hours”. Also, the “adverse event profile compared to a comparable or lower dose with a conventional nebulizer” value in series [7] was “improved adverse event profile”. Moreover, in series [7], the “lung deposition compared to a comparable or higher dose with a conventional nebulizer” value is reported as “higher degree of lung deposition”.
